From publication PMC5511861, “DS16570511 is a small-molecule inhibitor of the mitochondrial calcium uniporter” (Cell Death Discovery, 2017)

System: rat perfused heart
Assay: Cardiac functions (heart rate, contractility) in rat isolated perfused heart
Procedure: We then investigated the effect of DS16570511 on cardiac functions in the perfused heart. We observed that heart rate was unaffected by DS16570511 in the range of 3–30 μM (Figure 7a). […] The increase of contractility was diminished by washout of the drug (Figure 7b), showing that the cardiac effect of DS16570511 is reversible.
Figure 7 Effects of DS16570511 on cardiac functions. (a) Effect of DS16570511 on heart rate in rat perfused heart. Data are mean with S.E.M. from more than four independent samples. (b) Representative data showing acute and reversible effect of DS16570511 on contractility. (c) Effect of DS16570511 on contractility in rat perfused heart. Plotted are values of pretreatment and 5 min after treatment of 10 or 30 μM DS16570511.
The hearts were rapidly excised from 9-week-old male Wistar rats and perfused at 37 °C with Krebs-Ringer perfusion buffer (127.2 mM NaCl, 4.7 mM KCl, 2.5 mM CaCl2, 1.2 mM KH2PO4, 1.2 mM MgSO4, 25 mM NaHCO3 and 5.5 mM glucose (pH 7.4)) equilibrated with 95% O2/5% CO2. A balloon was inserted through the left atrium into the left ventricle. Heart rate and contractility were continuously recorded with a data acquisition system (PowerLab, ADInstruments, Bella Vista, NSW, Australia).

Cc1onc(-c2c(Cl)cccc2Cl)c1CNc1cccc(C(=O)c2cn(CCCC(=O)O)c3ccccc23)c1 [DS16570511]
effect on heart rate (3–30 μM): unaffected
effect on cardiac contractility (10 or 30 μM, 5 min after treatment): increased cardiac contractility
reversibility of the cardiac effect on washout (washout of the drug): reversible
